We go through nine compounds from US4797395A, “1-Acyloxyalkyl esters of cephalosporin” (Takeda Chemical Industries, Ltd., priority 1983, dated 1989).

Structures can show the parent of a compound that is named as a salt. Where two headings read alike, the source gives them in different places.

The conditions of data set [1]: mouse, in vivo. As for the experimental part: The compounds of Examples (compound Nos. 1, 2, 3, 4, 5, 6, 7 and 8) and, as a control compound, the pivaloyloxymethyl ester of compound [II] (hereinafter referred to briefly as compound A) are administered orally to mice, each compound to one animal, in the dose of 100 mg/kg in terms of the non-ester, i.e. compound [II]. At 0.25, 0.5, 1.0 and 2.0 hours after administration, the concentration of compound [II] in the plasma of each mouse is measured by the cup method using Proteus mirabilis Eb 313 as the test organism and the area under plasma concentration-time curve from zero to 2 hours (AUC) is calculated. As a control, compound [II] is subcutaneously administered to a mouse and the AUC value is calculated as above. The bioavailability is calculated by means of the following equation. [formula]

The test system of another data set is Staphylococcus aureus. The following applies: gram-positive; Antimicrobial Agent and Chemotherapy 14, 557-568 (1978); cited from earlier work.
In a further data set the test system is Escherichia coli. Conditions: gram-negative; Antimicrobial Agent and Chemotherapy 14, 557-568 (1978); cited from earlier work.
In the next data set the test system is Klebsiella pneumoniae. The following applies: gram-negative; Antimicrobial Agent and Chemotherapy 14, 557-568 (1978); cited from earlier work.
The test system of another data set is Proteus vulgaris. The following applies: gram-negative; Antimicrobial Agent and Chemotherapy 14, 557-568 (1978); cited from earlier work.
The subject of the next data set is Proteus mirabilis. Conditions: gram-negative; Antimicrobial Agent and Chemotherapy 14, 557-568 (1978); cited from earlier work.
The subject of the next data set is Proteus morganii. Conditions: gram-negative; Antimicrobial Agent and Chemotherapy 14, 557-568 (1978); cited from earlier work.

`CN(C)CCn1nnnc1SCC1=C(C(=O)OCOC(=O)C(C)(C)C)N2C(=O)[C@@H](NC(=O)Cc3csc(N)n3)[C@H]2SC1` [compound A, reference compound] showed a Bioavailability in data set [1] (100 mg/kg, 120 min) of 41.8%. For the same compound, the “Plasma level of non-ester (compound [II]), 0.25 hr” value (from here on “Plasma level of non-ester … 0.25 hr”) in data set [1] (po, 100 mg/kg, 15 min) is 21000 ng/mL. In addition, the “Plasma level of non-ester (compound [II]), 0.5 hr” value (from here on “Plasma level of non-ester … 0.5 hr”) in data set [1] (po, 100 mg/kg, 30 min) was 16200 ng/mL. In addition, the “Plasma level of non-ester (compound [II]), 1.0 hr” value (“Plasma level of non-ester … 1.0 hr” for short) in data set [1] (po, 100 mg/kg, 60 min) was 6100 ng/mL. In addition, the “Plasma level of non-ester (compound [II]), 2.0 hr” value (“Plasma level of non-ester … 2.0 hr” for short) in data set [1] (po, 100 mg/kg, 120 min) came to 600 ng/mL.
`CCCC(=O)OC(OC(=O)C1=C(CSc2nnnn2CCN(C)C)CS[C@@H]2[C@H](NC(=O)Cc3csc(N)n3)C(=O)N12)C1CCCCC1` (stereo partly drawn) [Compound No. 8, 1-n-Butyryloxy-1-cyclohexylmethyl 7β-[2-(2-aminothiazol-4-yl)acetamido]-3-[[[1-(2-dimethylaminoethyl) -1H-tetrazol-5-yl]thio]methyl]ceph-3-em-4-carboxylate dihydrochloride] showed a Bioavailability in data set [1] (100 mg/kg, 120 min) of 103.5%. In addition, in data set [1] (po, 100 mg/kg, 15 min), the “Plasma level of non-ester … 0.25 hr” value came to 50000 ng/mL. In addition, in data set [1] (po, 100 mg/kg, 30 min), the “Plasma level of non-ester … 0.5 hr” value was determined as 39600 ng/mL. Also, the “Plasma level of non-ester … 1.0 hr” value in data set [1] (po, 100 mg/kg, 60 min) was 15600 ng/mL. In addition, in data set [1] (po, 100 mg/kg, 120 min), the AUC worked out at 40200 ng·h/mL and the “Plasma level of non-ester … 2.0 hr” value was 2330 ng/mL.
In data set [1] (100 mg/kg, 120 min), `CCC(OC(=O)C1=C(CSc2nnnn2CCN(C)C)CS[C@@H]2[C@H](NC(=O)Cc3csc(N)n3)C(=O)N12)OC(=O)C1CCCCC1.Cl.Cl` (stereo partly drawn) [compound 3, 1-(Cyclohexylcarbonyloxy)propyl 7β-[2-(2-amino-thiazol-4-yl)acetamido]-3-[[[1-(2-dimethylaminoethyl) -1H-tetrazol-5-yl]thio]methyl]ceph-3-em-4-carboxylate dihydrochloride] had a Bioavailability of 86.4%. Also, the “Plasma level of non-ester … 0.25 hr” value in data set [1] (po, 100 mg/kg, 15 min) is 59500 ng/mL. The “Plasma level of non-ester … 0.5 hr” value in data set [1] (po, 100 mg/kg, 30 min) was determined as 25000 ng/mL. Moreover, the “Plasma level of non-ester … 1.0 hr” value in data set [1] (po, 100 mg/kg, 60 min) stood at 11700 ng/mL. For the same compound, in data set [1] (po, 100 mg/kg, 120 min), the exposure (AUC) stood at 33500 ng·h/mL and the “Plasma level of non-ester … 2.0 hr” value was 1000 ng/mL.
Compound `CC(C)C(OC(=O)C1=C(CSc2nnnn2CCN(C)C)CS[C@@H]2[C@H](NC(=O)Cc3csc(N)n3)C(=O)N12)OC(=O)C1CCCCC1.Cl.Cl` (stereo partly drawn) [Compound No. 1, 1-(Cyclohexylcarbonyloxy)-2-methylpropyl 7β-[2-(2-aminothiazol-4-yl)acetamido]-3-[[[1-(2-dimethylaminoethyl) -1H-tetrazol-5-yl]thio]methyl]ceph-3-em-4-carboxylate dihydrochloride] gave a Bioavailability in data set [1] (100 mg/kg, 120 min) of 94.4%. In addition, the “Plasma level of non-ester … 0.25 hr” value in data set [1] (po, 100 mg/kg, 15 min) came to 66300 ng/mL. Besides, the “Plasma level of non-ester … 0.5 hr” value in data set [1] (po, 100 mg/kg, 30 min) worked out at 34500 ng/mL. Besides, the “Plasma level of non-ester … 1.0 hr” value in data set [1] (po, 100 mg/kg, 60 min) was found to be 8900 ng/mL. Further, in data set [1] (po, 100 mg/kg, 120 min), the AUC worked out at 36600 ng·h/mL and the “Plasma level of non-ester … 2.0 hr” value was found to be 900 ng/mL.
In the case of `CC(C)C(OC(=O)CC1CCCCC1)OC(=O)C1=C(CSc2nnnn2CCN(C)C)CS[C@@H]2[C@H](NC(=O)Cc3csc(N)n3)C(=O)N12.Cl.Cl` (stereo partly drawn) [compound 5, 1-(Cyclohexylacetoxy)-2-methylpropyl 7β-[2-(2-aminothiazol-4-yl)acetamido]-3-[[[1-(2-dimethylaminoethyl) 1H-tetrazol-5-yl]thio]methyl]ceph-3-em-4-carboxylate dihydrochloride], the Bioavailability in data set [1] (100 mg/kg, 120 min) was 88.8%. Further, the “Plasma level of non-ester … 0.25 hr” value in data set [1] (po, 100 mg/kg, 15 min) was determined as 29200 ng/mL. Further, the “Plasma level of non-ester … 0.5 hr” value in data set [1] (po, 100 mg/kg, 30 min) was 46700 ng/mL. The “Plasma level of non-ester … 1.0 hr” value in data set [1] (po, 100 mg/kg, 60 min) is 11100 ng/mL. In addition, in data set [1] (po, 100 mg/kg, 120 min), the AUC was 34500 ng·h/mL and the “Plasma level of non-ester … 2.0 hr” value came out at 2600 ng/mL.
On to `CN(C)CCn1nnnc1SCC1=C(C(=O)O)N2C(=O)[C@@H](NC(=O)Cc3csc(N)n3)[C@H]2SC1` [compound [II]], for which the “Plasma level of non-ester … 0.25 hr” value in data set [1] (sc, 0.25 h) stood at 69200 ng/mL. In addition, the “Plasma level of non-ester … 0.5 hr” value in data set [1] (sc, 0.5 h) amounted to 29000 ng/mL. Further, the “Plasma level of non-ester … 1.0 hr” value in data set [1] (sc, 1 h) was found to be 13200 ng/mL. Further, in data set [1] (sc, 120 min), the Bioavailability is listed as 100%. Also, the “Plasma level of non-ester … 2.0 hr” value in data set [1] (sc, 2 h) stood at 1500 ng/mL. Further, the antibacterial activity entry in the data set on Staphylococcus aureus, in the data set on Escherichia coli, with Klebsiella pneumoniae, in the data set with Proteus vulgaris, with Proteus mirabilis and with Proteus morganii was “potent antibacterial activity” throughout.
`CCCC(OC(=O)C1=C(CSc2nnnn2CCN(C)C)CS[C@@H]2[C@H](NC(=O)Cc3csc(N)n3)C(=O)N12)OC(=O)C1CCCCC1.Cl.Cl` (stereo partly drawn) [compound 4, 1-(Cyclohexylcarbonyloxy)butyl 7β-[2-(2-aminothiazol-4-yl)acetamido]-3-[[[1-(2-dimethylaminoethyl) -1H-tetrazol-5-yl]thio]methyl]ceph-3-em-4-carboxylate dihydrochloride] came in with a Bioavailability in data set [1] (100 mg/kg, 120 min) of 98.8%. In data set [1] (po, 100 mg/kg, 15 min), the “Plasma level of non-ester … 0.25 hr” value was 47000 ng/mL. In addition, the “Plasma level of non-ester … 0.5 hr” value in data set [1] (po, 100 mg/kg, 30 min) came out at 38400 ng/mL. For the same compound, the “Plasma level of non-ester … 1.0 hr” value in data set [1] (po, 100 mg/kg, 60 min) turned out to be 14400 ng/mL. In data set [1] (po, 100 mg/kg, 120 min), the AUC was 38400 ng·h/mL and the “Plasma level of non-ester … 2.0 hr” value amounted to 2800 ng/mL.
In data set [1] (100 mg/kg, 120 min), `CN(C)CCn1nnnc1SCC1=C(C(=O)OC(OC(=O)C2CCCCC2)C2CCCCC2)N2C(=O)[C@@H](NC(=O)Cc3csc(N)n3)[C@H]2SC1.Cl.Cl` (stereo partly drawn) [compound 2, 1-(Cyclohexylcarbonyloxy)-1-cyclohexylmethyl 7β-[2-(2-aminothiazol-4-yl)acetamido]-3-[[[1-(2-dimethylaminoethyl) -1H-tetrazol-5-yl]thio]methyl]ceph-3-em-4-carboxylate dihydrochloride] showed a Bioavailability of 107.8%. For the same compound, the “Plasma level of non-ester … 0.25 hr” value in data set [1] (po, 100 mg/kg, 15 min) amounted to 46100 ng/mL. Also, the “Plasma level of non-ester … 0.5 hr” value in data set [1] (po, 100 mg/kg, 30 min) was 32200 ng/mL. The “Plasma level of non-ester … 1.0 hr” value in data set [1] (po, 100 mg/kg, 60 min) was 21200 ng/mL. In addition, in data set [1] (po, 100 mg/kg, 120 min), the area under the curve (AUC) came to 41900 ng·h/mL and the “Plasma level of non-ester … 2.0 hr” value turned out to be 4700 ng/mL.
Compound `CCCCC(=O)OC(OC(=O)C1=C(CSc2nnnn2CCN(C)C)CS[C@@H]2[C@H](NC(=O)Cc3csc(N)n3)C(=O)N12)C1CCCCC1.Cl.Cl` (stereo partly drawn) [Compound No. 7, 1-n-Pentanoyloxy-1-cyclohexylmethyl 7β-[2-(2-aminothiazol-4-yl)acetamido]-3-[[[1-(2-dimethylaminoethyl)-1H-tetrazol-5-yl]thio]methyl]ceph-3-em-4-carboxylate dihydrochloride] displayed a Bioavailability in data set [1] (100 mg/kg, 120 min) of 88.9%. Moreover, the “Plasma level of non-ester … 0.25 hr” value in data set [1] (po, 100 mg/kg, 15 min) is 36400 ng/mL. The “Plasma level of non-ester … 0.5 hr” value in data set [1] (po, 100 mg/kg, 30 min) came to 30000 ng/mL. Moreover, in data set [1] (po, 100 mg/kg, 60 min), the “Plasma level of non-ester … 1.0 hr” value stood at 17000 ng/mL. Besides, in data set [1] (po, 100 mg/kg, 120 min), the AUC came out at 34500 ng·h/mL and the “Plasma level of non-ester … 2.0 hr” value came to 3200 ng/mL.
